# Test results taken from paper PMC6061857 (2018).
# Legend:
# [1] = tested on: 38-GT (DNA, aptamer) GGGAGACAAGGAAAATCCTTCAATGAAGTGGGTCTCCC; assay: ITC; details: 10 mM Tris, pH 7.4, 23 °C
# [2] = tested on: 35-GT (DNA, aptamer) GGGAGACAAGGAAAATCCTTCAATGAAGTGGGTCT; assay: ITC; details: 10 mM Tris, pH 7.4, 23 °C
# [3] = tested on: ATP-33 (DNA, aptamer) CGCACCTGGGGGAGTATTGCGGAGGAAGGTGCG; assay: ITC, two-site sequential binding; details: 10 mM Mg2+; 10 mM Tris, pH 7.4, 23 °C; site 1 of 2 (KD2 12.3 ± 0.6 μM)
# [4] = tested on: ATP-30 (DNA, aptamer) CGCACCTGGGGGAGTATTGCGGAGGAAGGT; assay: ITC, two-site sequential binding; details: 10 mM Mg2+; 10 mM Tris, pH 7.4, 23 °C; site 1 of 2 (KD2 10.1 ± 0.3 μM)
KD [1] [µM],KD [2] [µM],KD1 [3] [µM],KD1 [4] [µM],SMILES
1.6 ± 0.2,12 ± 1.0,,,COC(=O)[C@H]1[C@@H](OC(=O)c2ccccc2)C[C@@H]2CC[C@H]1N2C
,,0.6 ± 0.1,0.8 ± 0.1,Nc1ncnc2c1ncn2[C@@H]1O[C@H](COP(=O)(O)OP(=O)(O)OP(=O)(O)O)[C@@H](O)[C@H]1O
